Results as given in patent US20230049952A1, “METHODS AND COMPOUNDS FOR RESTORING MUTANT P53 FUNCTION” (PMV Pharmaceuticals, Inc., priority 2020, published 2023).
Where two headings read alike, the source gives them in different places.

Assays:
CYP2C9 = CYP2C9 (Homo sapiens, UniProt P11712); assay: CYP inhibition in human liver microsomes; assay type: in vitro ADME; design: from tissue; host or cells: pooled human liver microsomes, 200 donors; conditions: both sexes, pooled human liver microsomes, pH 7.4, HLM, read-out: % of Control Enzyme Activity
Procedure: The HLMs were stored at −80° C. until use.
Negative (vehicle) controls were conducted without a test article.

CYP2C8 = target: T1, CYP2C8 (Homo sapiens, UniProt P10632); assay: in vitro; conditions: both, microsomes, pH 7.4
T1 sequence (P10632 1-490): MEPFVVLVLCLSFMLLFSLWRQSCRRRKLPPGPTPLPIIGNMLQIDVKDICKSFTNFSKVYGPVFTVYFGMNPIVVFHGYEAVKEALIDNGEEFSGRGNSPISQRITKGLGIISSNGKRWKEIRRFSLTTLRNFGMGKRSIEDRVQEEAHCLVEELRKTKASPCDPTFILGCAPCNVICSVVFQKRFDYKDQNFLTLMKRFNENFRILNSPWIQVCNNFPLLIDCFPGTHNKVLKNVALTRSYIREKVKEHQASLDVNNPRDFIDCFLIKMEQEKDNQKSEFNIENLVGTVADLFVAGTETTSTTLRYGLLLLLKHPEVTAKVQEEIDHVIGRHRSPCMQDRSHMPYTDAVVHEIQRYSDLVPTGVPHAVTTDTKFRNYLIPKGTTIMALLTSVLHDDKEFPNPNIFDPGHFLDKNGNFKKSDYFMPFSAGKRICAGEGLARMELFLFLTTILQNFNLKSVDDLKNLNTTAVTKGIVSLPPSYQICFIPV

human hepatocytes = assay: metabolic stability in cryopreserved hepatocytes; assay type: in vitro ADME
Procedure: (§1) Mixed-gender human cryopreserved hepatocytes, male Sprague-Dawley rat cryopreserved hepatocytes, male CD-1 mouse cryopreserved hepatocytes, male beagle dog cryopreserved hepatocytes, and male cynomolgus monkey cryopreserved hepatocytes were used for the study. The hepatocytes were thawed, pooled into Krebs Henseleit buffer (KHB, pH 7.4), and kept on ice prior to the experiments. […] Each experiment was performed in triplicate. The final DMSO content in the incubation mixture was ≤0.1%. […] Positive controls, testosterone (1 μM) and 7-hydroxycoumarin (7-HC) (100 μM), were performed in parallel to confirm the activity of the hepatocytes. […] Aliquots of testosterone were withdrawn (n=1) at 0, 5, 15, 30, 60, and 120 minutes. Aliquots of 7-HC were withdrawn (n=1) at 0 and 15 minutes. The reaction was immediately terminated by adding three volumes of ice-cold MeCN containing IS. The samples were then mixed and spun by centrifuge to precipitate proteins. An aliquot of the supernatant was then diluted with water. Calibration standards for the analysis of 7-HC metabolites were prepared in matched matrix. […] All samples were analyzed by LC-MS/MS. The peak area response ratio (PARR) vs. IS was compared to the PARR at time 0 to determine the percent remaining at each time point. Half-lives and clearance values were calculated using GraphPad software, fitting to a single-phase exponential decay equation.
(§2) Mixed-gender human cryopreserved hepatocytes, male Sprague-Dawley rat cryopreserved hepatocytes, male CD-1 mouse cryopreserved hepatocytes, male beagle dog cryopreserved hepatocytes, and male cynomolgus monkey cryopreserved hepatocytes were thawed and pooled into KHB buffer (pH 7.4) and kept on ice prior to the experiments. […] Each experiment was performed in triplicate. The final DMSO content in the incubation mixture was ≤0.1%.
(§3) Positive controls, testosterone (1 μM) and 7-hydroxycoumarin (7-HC) (100 μM), were performed in parallel to confirm the activity of the hepatocytes. […] Aliquots of testosterone were withdrawn (n=1) at 0, 5, 15, 30, 60, and 120 minutes. Aliquots of 7-HC were withdrawn (n=1) at 0 and 15 minutes. The reaction was immediately terminated by adding three volumes of ice-cold MeCN containing IS. The samples were then mixed and spun by centrifuge to precipitate proteins. An aliquot of the supernatant was then diluted with water. Calibration standards for the analysis of 7-HC metabolites were prepared in matched matrix. […] All samples were analyzed by LC-MS/MS. Analytical conditions are outlined below. The peak area response ratio (PARR) vs. IS was compared to the PARR at time 0 to determine the percent remaining at each time point. Half-lives and clearance values were calculated using GraphPad software, fitting to a single-phase exponential decay equation.

[1] = metabolic stability in cryopreserved hepatocytes; assay type: in vitro ADME, rat
Procedure: as §1, §2, §3

[2] = metabolic stability in cryopreserved hepatocytes; assay type: in vitro ADME, mouse
Procedure: as §1, §2, §3

[3] = metabolic stability in cryopreserved hepatocytes; assay type: in vitro ADME, dog
Procedure: Mixed-gender human cryopreserved hepatocytes, male Sprague-Dawley rat cryopreserved hepatocytes, male CD-1 mouse cryopreserved hepatocytes, male beagle dog cryopreserved hepatocytes, and male cynomolgus monkey cryopreserved hepatocytes were used for the study. The hepatocytes were thawed, pooled into Krebs Henseleit buffer (KHB, pH 7.4), and kept on ice prior to the experiments. […] Each experiment was performed in triplicate. The final DMSO content in the incubation mixture was ≤0.1%. […] Aliquots of testosterone were withdrawn (n=1) at 0, 5, 15, 30, 60, and 120 minutes. Aliquots of 7-HC were withdrawn (n=1) at 0 and 15 minutes. The reaction was immediately terminated by adding three volumes of ice-cold MeCN containing IS. The samples were then mixed and spun by centrifuge to precipitate proteins. An aliquot of the supernatant was then diluted with water. Calibration standards for the analysis of 7-HC metabolites were prepared in matched matrix. […] All samples were analyzed by LC-MS/MS. The peak area response ratio (PARR) vs. IS was compared to the PARR at time 0 to determine the percent remaining at each time point. Half-lives and clearance values were calculated using GraphPad software, fitting to a single-phase exponential decay equation.
as §2
Aliquots of testosterone were withdrawn (n=1) at 0, 5, 15, 30, 60, and 120 minutes. Aliquots of 7-HC were withdrawn (n=1) at 0 and 15 minutes. The reaction was immediately terminated by adding three volumes of ice-cold MeCN containing IS. The samples were then mixed and spun by centrifuge to precipitate proteins. An aliquot of the supernatant was then diluted with water. Calibration standards for the analysis of 7-HC metabolites were prepared in matched matrix. […] All samples were analyzed by LC-MS/MS. Analytical conditions are outlined below. The peak area response ratio (PARR) vs. IS was compared to the PARR at time 0 to determine the percent remaining at each time point. Half-lives and clearance values were calculated using GraphPad software, fitting to a single-phase exponential decay equation.

[4] = metabolic stability in cryopreserved hepatocytes; assay type: in vitro ADME, cynomolgus monkey
Procedure: as §1, §2, §3

CYP2D6 = CYP2D6 (Homo sapiens, UniProt P10635); assay: CYP inhibition in human liver microsomes; assay type: in vitro ADME; design: from tissue; host or cells: pooled human liver microsomes, 200 donors; conditions: both sexes, pooled human liver microsomes, pH 7.4, HLM, read-out: % of Control Enzyme Activity
OCT2 = target: T2, OCT2 (Homo sapiens, UniProt O15244); conditions: 2 min/5 μM
T2 sequence (O15244 1-555): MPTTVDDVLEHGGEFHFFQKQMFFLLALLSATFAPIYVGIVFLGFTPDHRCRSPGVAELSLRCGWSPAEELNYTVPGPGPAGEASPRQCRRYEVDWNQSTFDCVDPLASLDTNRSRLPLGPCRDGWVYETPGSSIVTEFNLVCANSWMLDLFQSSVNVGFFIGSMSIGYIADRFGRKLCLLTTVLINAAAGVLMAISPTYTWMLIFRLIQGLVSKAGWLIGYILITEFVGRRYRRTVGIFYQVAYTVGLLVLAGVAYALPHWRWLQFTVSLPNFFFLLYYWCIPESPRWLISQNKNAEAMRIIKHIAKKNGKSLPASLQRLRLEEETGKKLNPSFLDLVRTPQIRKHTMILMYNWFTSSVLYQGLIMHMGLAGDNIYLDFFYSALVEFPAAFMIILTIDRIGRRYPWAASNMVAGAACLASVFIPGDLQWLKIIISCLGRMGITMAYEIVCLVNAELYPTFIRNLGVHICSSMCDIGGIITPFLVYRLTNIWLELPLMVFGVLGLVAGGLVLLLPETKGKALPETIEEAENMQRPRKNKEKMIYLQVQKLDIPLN
Procedure: All experiments were conducted in duplicate (n=2). The cells were incubated for the indicated time in a humidified incubator (37° C. 5% CO2). […] The uptake incubation was stopped by two washes with ice-cold HBSSg.

[5] = Human cryopreserved hepatocytes, positive control 7-hydroxycoumarin 100 μM
[6] = Human hepatocytes, from 7-hydroxycoumarin (7-HC) 100 μM positive control
[7] = Rat cryopreserved hepatocytes, positive control 7-hydroxycoumarin 100 μM
[8] = Rat hepatocytes, from 7-hydroxycoumarin (7-HC) 100 μM positive control
[9] = Mouse cryopreserved hepatocytes, positive control 7-hydroxycoumarin 100 μM
[10] = Mouse hepatocytes, from 7-hydroxycoumarin (7-HC) 100 μM positive control
[11] = Dog cryopreserved hepatocytes, positive control 7-hydroxycoumarin 100 μM
[12] = Dog hepatocytes, from 7-hydroxycoumarin (7-HC) 100 μM positive control
[13] = Monkey cryopreserved hepatocytes, positive control 7-hydroxycoumarin 100 μM
[14] = Monkey hepatocytes, from 7-hydroxycoumarin (7-HC) 100 μM positive control

CYP2C9, sequence (P11712 whole entry): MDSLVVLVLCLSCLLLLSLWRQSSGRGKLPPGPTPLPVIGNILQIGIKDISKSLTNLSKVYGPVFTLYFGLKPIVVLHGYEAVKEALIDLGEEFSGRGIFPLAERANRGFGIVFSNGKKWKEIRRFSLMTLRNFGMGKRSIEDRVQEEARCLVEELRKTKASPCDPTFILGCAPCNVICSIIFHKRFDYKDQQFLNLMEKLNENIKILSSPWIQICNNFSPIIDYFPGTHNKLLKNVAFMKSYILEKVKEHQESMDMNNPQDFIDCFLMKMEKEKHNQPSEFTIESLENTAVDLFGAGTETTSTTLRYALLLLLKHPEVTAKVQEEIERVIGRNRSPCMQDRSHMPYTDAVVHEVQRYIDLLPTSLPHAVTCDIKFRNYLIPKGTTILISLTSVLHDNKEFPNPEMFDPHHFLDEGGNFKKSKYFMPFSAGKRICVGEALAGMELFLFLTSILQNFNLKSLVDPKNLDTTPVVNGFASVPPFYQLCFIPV
CYP2D6, sequence (P10635 whole entry): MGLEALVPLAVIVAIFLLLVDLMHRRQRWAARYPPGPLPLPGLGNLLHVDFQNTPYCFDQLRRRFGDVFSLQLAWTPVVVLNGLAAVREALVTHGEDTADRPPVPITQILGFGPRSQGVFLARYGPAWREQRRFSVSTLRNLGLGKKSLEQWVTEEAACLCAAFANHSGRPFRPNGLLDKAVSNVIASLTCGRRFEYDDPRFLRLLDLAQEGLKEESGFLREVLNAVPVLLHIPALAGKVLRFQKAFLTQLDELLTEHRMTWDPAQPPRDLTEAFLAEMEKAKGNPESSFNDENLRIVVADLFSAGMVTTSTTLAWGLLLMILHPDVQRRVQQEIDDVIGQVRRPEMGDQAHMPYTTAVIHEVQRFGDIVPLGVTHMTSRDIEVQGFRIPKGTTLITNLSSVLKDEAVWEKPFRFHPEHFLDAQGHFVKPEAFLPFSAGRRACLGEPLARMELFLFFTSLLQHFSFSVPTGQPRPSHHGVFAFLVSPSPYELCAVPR

Structure (SMILES)	Formation Rate (human hepatocytes; [5]) [pmol/min/10^6 cells]	Formation Rate (human hepatocytes; [6]) [pmol/min/10^6 cells]	Formation Rate [1, 7] [pmol/min/10^6 cells]	Formation Rate [1, 8] [pmol/min/10^6 cells]	Formation Rate [2, 9] [pmol/min/10^6 cells]	Formation Rate [2, 10] [pmol/min/10^6 cells]	Formation Rate [3, 11] [pmol/min/10^6 cells]	Formation Rate [3, 12] [pmol/min/10^6 cells]	Formation Rate [4, 13] [pmol/min/10^6 cells]	Formation Rate [4, 14] [pmol/min/10^6 cells]	further results
Nc1ccc(S(=O)(=O)Nc2ccnn2-c2ccccc2)cc1 [Sulfaphenazole, sulfaphenazole]											activity at 20 min, 0.123 µM (CYP2C9; 0.123 μM): 76.9%; activity at 20 min, 0.37 µM (CYP2C9; 0.370 μM): 55.4%; activity at 20 min, 3.33 µM (CYP2C9; 3.33 μM): 16.3%; activity at 20 min, 10 µM (CYP2C9; 10.0 μM): 7.69%
CC(C)(O)c1ccccc1CC[C@@H](SCC1(CC(=O)O)CC1)c1cccc(/C=C/c2ccc3ccc(Cl)cc3n2)c1 [Montelukast, montelukast]											activity at 20 min, 0.123 µM (CYP2C8): 54%; activity at 20 min, 0.37 µM (CYP2C8): 26.8%; activity at 20 min, 3.33 µM (CYP2C8): 4.22%; activity at 20 min, 10 µM (CYP2C8): 2.17%
O=C(O)[C@H]1O[C@@H](Oc2ccc3ccc(=O)oc3c2)[C@H](O)[C@@H](O)[C@@H]1O [Compound 7-HC-G]	316	316	253	253	234	234	301	301	279	279	
O=c1ccc2ccc(OS(=O)(=O)[O-])cc2o1.[K+] [Compound 7-HC-S]	7.74	7.74	34.0	34	6.36	6.36	24.5	24.5	13.3	13.3	
C=C[C@H]1C[N@@]2CC[C@H]1C[C@@H]2[C@@H](O)c1ccnc2ccc(OC)cc12 [Quinidine, quinidine]											activity at 20 min, 0.123 µM (CYP2D6; 0.123 μM): 30.6%; activity at 20 min, 0.37 µM (CYP2D6; 0.370 μM): 17.7%; activity at 20 min, 3.33 µM (CYP2D6; 3.33 μM): 8.69%; activity at 20 min, 10 µM (CYP2D6; 10.0 μM): 7.28%
C[n+]1ccc(-c2ccccc2)cc1 [MPP, MPP+]											Substrate Assessment (OCT2): Positive (Influx Rate Ratio≥2.0: Positive); Influx Rate AVG (OCT2; OCT2 cells): 403 pmol/minute/mg/protein; Influx Rate Ratio (OCT2; OCT2 vs Vector Control): 16.6; Influx Rate AVG (OCT2; Vector Control cells): 24.3 pmol/minute/mg/protein
